The values below come from patent US20080021026A1, “BENZOTHIOPHENE INHIBITORS OF RHO KINASE” (priority 2006, published 2008).

Assay [1] addresses T1, recombinant N-terminal GST-tagged human Rho kinase 1 (ROCK1, amino acids 1-535) (Homo sapiens, UniProt Q13464).
T1 construct: ROCK1, amino acids 1-535; purchased Invitrogen Inc. PV-3691
The assay can be described thus: In vitro Rho kinase assay (luciferase-based ATP consumption), ROCK1. Format: biochemical. The gist of the method: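 GST-ROCK1 (aa 1-535) at 0.82 μg/ml with 100 μg/ml S6 peptide and 3 µM ATP in Tris pH 7.5 buffer with MgCl2, CaCl2, EGTA, BSA; compound added after reaction start, 2 h at 30 °C. Remaining ATP read by luciferase luminescence; efficacy as percent of H-1152P positive control.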

For assay [2], the target named is T2, recombinant N-terminal GST-tagged human Rho kinase 2 (ROCK2, amino acids 1-552) (Homo sapiens, UniProt O75116).
T2 construct: ROCK2, amino acids 1-552; purchased Invitrogen Inc. PV3759
T2 sequence (O75116 1-552): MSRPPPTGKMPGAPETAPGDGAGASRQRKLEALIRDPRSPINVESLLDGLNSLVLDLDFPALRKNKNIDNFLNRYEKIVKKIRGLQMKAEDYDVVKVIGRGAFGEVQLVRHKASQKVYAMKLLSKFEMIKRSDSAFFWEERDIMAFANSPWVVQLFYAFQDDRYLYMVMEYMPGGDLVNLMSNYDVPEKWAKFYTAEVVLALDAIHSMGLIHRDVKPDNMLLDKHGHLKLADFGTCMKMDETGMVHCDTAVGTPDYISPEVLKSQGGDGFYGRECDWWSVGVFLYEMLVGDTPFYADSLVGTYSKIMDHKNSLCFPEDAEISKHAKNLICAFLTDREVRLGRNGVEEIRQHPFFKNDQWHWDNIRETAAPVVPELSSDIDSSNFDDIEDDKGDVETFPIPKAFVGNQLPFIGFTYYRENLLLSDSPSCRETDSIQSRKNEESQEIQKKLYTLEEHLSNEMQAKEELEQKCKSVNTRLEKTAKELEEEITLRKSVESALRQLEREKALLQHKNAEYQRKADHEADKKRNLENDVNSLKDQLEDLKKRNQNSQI
The assay can be described thus: In vitro Rho kinase assay (luciferase-based ATP consumption), ROCK2. Format: biochemical. The gist of the method:
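GST-ROCK2 (aa 1-552, 0.82 μg/ml) with 100 μg/ml S6 peptide and 3 µM ATP in Tris pH 7.5 buffer with MgCl2/CaCl2/EGTA/BSA, compound added just after reaction start, 2 h at 30 °C. Remaining ATP read by luciferase luminescence. Efficacy expressed as percentage of H-1152P positive control.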

The mark [3] stands for this setting: recombinant GST-tagged human ROCK1, luciferase-based ATP consumption, read-out: ROCK1 IC50.
Setting [4] is: recombinant GST-tagged human ROCK2, luciferase-based ATP consumption, read-out: ROCK2 IC50.
Where [5] appears, read: ROCK1 IC50, recombinant GST-tagged human ROCK1, luciferase-based ATP consumption.
The mark [6] stands for this setting: ROCK2 IC50, recombinant GST-tagged human ROCK2, luciferase-based ATP consumption.

Like-named read-outs stand apart in the source and are kept apart here.

T1 sequence (Q13464 1-535): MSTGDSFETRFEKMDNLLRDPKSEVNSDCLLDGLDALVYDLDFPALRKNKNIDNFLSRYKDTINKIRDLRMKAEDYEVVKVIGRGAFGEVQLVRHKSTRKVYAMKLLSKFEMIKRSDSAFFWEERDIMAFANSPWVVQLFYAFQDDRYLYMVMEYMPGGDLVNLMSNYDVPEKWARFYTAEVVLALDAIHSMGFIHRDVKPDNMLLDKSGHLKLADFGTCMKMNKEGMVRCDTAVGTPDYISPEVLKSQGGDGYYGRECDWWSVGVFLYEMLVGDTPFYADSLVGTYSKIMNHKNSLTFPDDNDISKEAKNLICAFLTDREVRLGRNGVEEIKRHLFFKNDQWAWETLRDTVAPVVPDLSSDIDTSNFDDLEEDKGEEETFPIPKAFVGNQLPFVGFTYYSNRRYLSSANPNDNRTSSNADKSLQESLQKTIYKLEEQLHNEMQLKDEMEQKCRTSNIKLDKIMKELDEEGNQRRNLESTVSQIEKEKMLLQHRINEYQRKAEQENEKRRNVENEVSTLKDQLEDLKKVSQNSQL

Regarding `Cc1c(-c2ccnc(N)n2)sc2ccc(CNC(=O)C(C)NC(=O)OC(C)(C)C)cc12` (stereo not shown) [Example 241, C[C](NC(═O)OC(C)(C)C)C(═O)NCc1ccc2sc(c(C)c2c1)-c3ccnc(N)n3], the values for the IC50 in assay [1] (setting [3]) and in assay [2] (setting [4]) were < 5 µM and > 5 µM, respectively.

Regarding `Cc1cccc(C(=O)NCc2ccc3sc(-c4ccnc(N)n4)c(C)c3c2)c1C` [Example 133, Cc1cccc(c1C)C(═O)NCc2ccc3sc(c(C)c3c2)-c4ccnc(N)n4], the IC50 in assay [1] (setting [3]) and in assay [2] (setting [4]) was < 5 µM each time.

For `Cc1c(-c2ccnc(N)n2)sc2ccc(CNC(=O)c3ccncc3Cl)cc12` [Example 152, Cc1c(sc2ccc(CNC(═O)c3ccncc3Cl)cc12)-c4ccnc(N)n4], the IC50 in assay [1] (setting [5]) and in assay [2] (setting [6]) was < 5 µM throughout.

Turning to `COc1cccc(O)c1C(=O)NCc1ccc2sc(-c3ccnc(N)n3)c(C)c2c1` [Example 181, COc1cccc(O)c1C(═O)NCc2ccc3sc(c(C)c3c2)-c4ccnc(N)n4], the IC50 in assay [1] (setting [3]) and in assay [2] (setting [4]) was < 5 µM throughout.

For `Cc1c(-c2ccnc(N)n2)sc2ccc(CNC(=O)c3cnc[nH]3)cc12` [Example 102, Cc1c(sc2ccc(CNC(═O)c3cnc[nH]3)cc12)-c4ccnc(N)n4], the IC50 in assay [1] (setting [3]) and in assay [2] (setting [4]) was < 5 µM in each case.

For `Cc1c(-c2ccnc(N)n2)sc2ccc(CNC(=O)C=Cc3ccccc3F)cc12` [Example 173, Cc1c(sc2ccc(CNC(═O)C═Cc3ccccc3F)cc12)-c4ccnc(N)n4], the IC50 (in general, the concentration that gives 50% inhibition) in assay [1] (setting [3]) was > 5 µM; in assay [2] (setting [4]), < 5 µM.

Regarding `Cc1ccccc1OCC(=O)NCc1ccc2sc(-c3ccnc(N)n3)c(C)c2c1` [Example 175, Cc1ccccc1OCC(═O)NCc2ccc3sc(c(C)c3c2)-c4ccnc(N)n4], the 50% inhibitory concentration (IC50) was > 5 µM in assay [1] (setting [3]) and < 5 µM in assay [2] (setting [4]).

Consider `Cc1c(-c2ccnc(N)n2)sc2ccc(CNC(=O)C=Cc3ccccc3C(F)(F)F)cc12` [Example 290, Cc1c(sc2ccc(CNC(═O)C═Cc3ccccc3C(F)(F)F)cc12)-c4ccnc(N)n4], for which the IC50 in assay [1] (setting [3]) and in assay [2] (setting [4]) was > 5 µM each time.

For `COc1cc(C(=O)Nc2ccc3sc(-c4ccnc(N)n4)c(C)c3c2)cc(OC)c1OC` [Example 73, N-(2-(2-Aminopyrimidin-4-yl)-3-methylbenzo[b]thiophen-5-yl)-3,4,5-trimethoxy benzamide], the IC50 in assay [1] (setting [3]) and in assay [2] (setting [4]) was > 5 µM throughout.

`Cc1c(-c2ccnc(N)n2)sc2ccc(CNC(=O)c3ncc[nH]3)cc12` [Example 103, Cc1c(sc2ccc(CNC(═O)c3ncc[nH]3)cc12)-c4ccnc(N)n4]: the IC50 in assay [1] (setting [3]) and in assay [2] (setting [4]) was < 5 µM throughout.

In the case of `CCOc1ccc2ccccc2c1C(=O)NCc1ccc2sc(-c3ccnc(N)n3)c(C)c2c1` [Example 291, CCOc1ccc2ccccc2c1C(═O)NCc3ccc4sc(c(C)c4c3)-c5ccnc(N)n5], the IC50 in assay [1] (setting [3]) was > 5 µM; in assay [2] (setting [4]), < 5 µM.

As for `Cc1c(-c2ccnc(N)n2)sc2ccc(CNC(=O)c3cc(F)c(Cl)cc3F)cc12` [Example 253, Cc1c(sc2ccc(CNC(═O)c3cc(F)c(Cl)cc3F)cc12)-c4ccnc(N)n4], the IC50 in assay [1] (setting [3]) and in assay [2] (setting [4]) was < 5 µM in each case.

As to `CCc1c(-c2ccnc(N)n2)sc2ccc(Cl)cc12` [Example 16, 4-(5-Chloro-3-ethylbenzo[b]thiophen-2-yl)pyrimidin-2-amine], the IC50 in assay [1] (setting [3]) and in assay [2] (setting [4]) was < 5 µM each time.

On to `Cc1c(-c2ccnc(N)n2)sc2ccc(CNC(=O)c3ccc(F)c([N+](=O)[O-])c3)cc12` [Example 231, Cc1c(sc2ccc(CNC(═O)c3ccc(F)c(c3)[N+]([O−])═O)cc12)-c4ccnc(N)n4], for which the IC50 in assay [1] (setting [3]) and in assay [2] (setting [4]) was < 5 µM each time.

In the case of `Cc1c(-c2ccnc(N)n2)sc2ccc(CNC(=O)c3ccc(-c4ccc(O)cc4)cc3)cc12` [Example 285, Cc1c(sc2ccc(CNC(═O)c3ccc(cc3)-c4ccc(O)cc4)cc12)-c5ccnc(N)n5], the IC50 in assay [1] (setting [3]) was > 5 µM; in assay [2] (setting [4]), < 5 µM.

In the case of `Cc1c(-c2ccnc(N)n2)sc2ccc(CNC(=O)c3ccc4cc(O)ccc4c3)cc12` [Example 236, Cc1c(sc2ccc(CNC(═O)c3ccc4cc(O)ccc4c3)cc12)-c5ccnc(N)n5], the IC50 in assay [1] (setting [3]) and in assay [2] (setting [4]) was < 5 µM throughout.

With `Cc1c(-c2ccnc(N)n2)sc2ccc(CNC(=O)c3cc4ccccc4s3)cc12` [Example 202, Cc1c(sc2ccc(CNC(═O)c3cc4ccccc4s3)cc12)-c5ccnc(N)n5], the IC50 in assay [1] (setting [3]) and in assay [2] (setting [4]) was < 5 µM throughout.

With `Cc1cccc(C(=O)NCc2ccc3sc(-c4ccnc(N)n4)c(C)c3c2)c1[N+](=O)[O-]` [Example 216, Cc1cccc(C(═O)NCc2ccc3sc(c(C)c3c2)-c4ccnc(N)n4)c1[N+]([O−])═O], the IC50 is > 5 µM in assay [1] (setting [3]) and < 5 µM in assay [2] (setting [4]).

Turning to `Cc1c(-c2ccnc(N)n2)sc2ccc(CNC(=O)c3cccnc3Cl)cc12` [Example 149, Cc1c(sc2ccc(CNC(═O)c3cccnc3Cl)cc12)-c4ccnc(N)n4], the IC50 was > 5 µM in assay [1] (setting [5]) and < 5 µM in assay [2] (setting [6]).

Take `Cc1c(-c2ccnc(N)n2)sc2ccc(CNC(=O)c3ccccc3[N+](=O)[O-])cc12` [Example 179, Cc1c(sc2ccc(CNC(═O)c3ccccc3[N+]([O−])═O)cc12)-c4ccnc(N)n4]: the IC50 was > 5 µM in assay [1] (setting [3]) and < 5 µM in assay [2] (setting [4]).

As to `Cc1c(-c2ccnc(N)n2)sc2ccc(CNC(=O)c3ccncc3)cc12` [Example 110, Cc1c(sc2ccc(CNC(═O)c3ccncc3)cc12)-c4ccnc(N)n4], the IC50 in assay [1] (setting [3]) was > 5 µM; in assay [2] (setting [4]), < 5 µM.

Take `Cc1c(-c2ccnc(N)n2)sc2ccc(CNC(=O)c3cc(F)c(F)cc3Cl)cc12` [Example 252, Cc1c(sc2ccc(CNC(═O)c3cc(F)c(F)cc3Cl)cc12)-c4ccnc(N)n4]: the IC50 in assay [1] (setting [5]) and in assay [2] (setting [6]) was < 5 µM throughout.

Consider `Cc1c(-c2ccnc(N)n2)sc2ccc(CNC(=O)C(Cl)(Cl)Cl)cc12` [Example 160, Cc1c(sc2ccc(CNC(═O)C(Cl)(Cl)Cl)cc12)-c3ccnc(N)n3], for which the IC50 in assay [1] (setting [3]) and in assay [2] (setting [4]) was < 5 µM each time.

As to `Cc1c(-c2ccnc(N)n2)sc2ccc(CNC(=O)Cc3ccc4c(c3)OCO4)cc12` [Example 212, Cc1c(sc2ccc(CNC(═O)Cc3ccc4OCOc4c3)cc12)-c5ccnc(N)n5], the IC50 in assay [1] (setting [3]) and in assay [2] (setting [4]) was < 5 µM throughout.

Consider `Cc1c(-c2ccnc(N)n2)sc2ccc(Cc3cccc(C(=O)N4CCN(C)CC4)c3)cc12` [Example 50, (3-((2-(2-Aminopyrimidin-4-yl)-3-methylbenzo[b]thiophen-5-yl)methyl)phenyl)(4-methylpiperazin-1-yl)methanone], for which the IC50 in assay [1] (setting [3]) and in assay [2] (setting [4]) was < 5 µM throughout.

For the compound `Cc1c(-c2ccnc(N)n2)sc2ccc(CNC(=O)C(C(C)C)N(C)C(=O)OC(C)(C)C)cc12` (stereo not shown) [Example 312, CC(C)C(N(C)C(═O)OC(C)(C)C)C(═O)NCc1ccc2sc(c(C)c2c1)-c3ccnc(N)n3], the IC50 in assay [1] (setting [3]) and in assay [2] (setting [4]) was > 5 µM throughout.

In the case of `COc1ccc(C(=O)NCc2ccc3sc(-c4ccnc(N)n4)c(C)c3c2)c(O)c1` [Example 183, COc1ccc(C(═O)NCc2ccc3sc(c(C)c3c2)-c4ccnc(N)n4)c(O)c1], the IC50 in assay [1] (setting [3]) is > 5 µM; in assay [2] (setting [4]), < 5 µM.

Take `Cc1c(-c2ccnc(N)n2)sc2ccc(CNC(=O)c3cc(F)cc(F)c3)cc12` [Example 156, Cc1c(sc2ccc(CNC(═O)c3cc(F)cc(F)c3)cc12)-c4ccnc(N)n4]: the IC50 in assay [1] (setting [3]) and in assay [2] (setting [4]) was < 5 µM each time.

In the case of `Cc1c(-c2ccnc(N)n2)sc2ccc(CNC(=O)c3ccc(Cl)c([N+](=O)[O-])c3)cc12` [Example 268, Cc1c(sc2ccc(CNC(═O)c3ccc(Cl)c(c3)[N+]([O−])═O)cc12)-c4ccnc(N)n4], the values for the IC50 in assay [1] (setting [3]) and in assay [2] (setting [4]) were > 5 µM and < 5 µM, respectively.

`Cc1c(-c2ccnc(N)n2)sc2ccc(CNC(=O)c3ccccc3Oc3ccccc3)cc12` [Example 283, Cc1c(sc2ccc(CNC(═O)c3ccccc3Oc4ccccc4)cc12)-c5ccnc(N)n5]: the IC50 in assay [1] (setting [3]) is < 5 µM; in assay [2] (setting [4]), > 5 µM.

Take `Cc1ccc(C(=O)NCc2ccc3sc(-c4ccnc(N)n4)c(C)c3c2)cc1` [Example 120, Cc1ccc(cc1)C(═O)NCc2ccc3sc(c(C)c3c2)-c4ccnc(N)n4]: the IC50 is > 5 µM in assay [1] (setting [3]) and < 5 µM in assay [2] (setting [4]).

`CCCCCCCC(=O)NCc1ccc2sc(-c3ccnc(N)n3)c(C)c2c1` [Example 125]: the IC50 in assay [1] (setting [3]) is > 5 µM; in assay [2] (setting [4]) it was < 5 µM.

Take `CCN(CC)c1ccc(C(=O)NCc2ccc3sc(-c4ccnc(N)n4)c(C)c3c2)cc1` [Example 254, CCN(CC)c1ccc(cc1)C(═O)NCc2ccc3sc(c(C)c3c2)-c4ccnc(N)n4]: the IC50 in assay [1] (setting [3]) is > 5 µM; in assay [2] (setting [4]), < 5 µM.

As to `Cc1c(-c2ccnc(N)n2)sc2ccc(CNC(=O)c3csc4ccccc34)cc12` [Example 201, Cc1c(sc2ccc(CNC(═O)c3csc4ccccc34)cc12)-c5ccnc(N)n5], the IC50 in assay [1] (setting [3]) was > 5 µM; in assay [2] (setting [4]) it was < 5 µM.

For `Cc1c(-c2ccnc(N)n2)sc2ccc(Cc3cccc(OCCN4CCOCC4)c3)cc12` [Example 29, 4-(3-Methyl-5-(3-(2-morpholinoethoxy)benzyl)benzo[b]thiophen-2-yl)pyrimidin-2-amine], the IC50 in assay [1] (setting [3]) and in assay [2] (setting [4]) was < 5 µM throughout.
